{
  "source": "patent US20200061109A1",
  "about": "“ZINC CHLORIDE HYDROXIDE HAVING EXCELLENT ZINC ION SUSTAINED-RELEASABILITY AND PRODUCTION METHOD THEREFOR” (JFE MINERAL COMPANY, LTD., priority 2016, published 2020)",
  "origin": "cited, not measured here",
  "key": {"skin": {"tested_on": "skin", "details": "in vivo"}},
  "data": [
    {"molecule": "[Zn+2]", "note": "[Zn^2+ ions]", "values": [
      {"measurement": "concentration at which no toxicity is shown against fibroblasts", "setting": "fibroblasts", "value": "no more than 500 μmol/L"},
      {"measurement": "level that increases inflammatory cell infiltration of skin and significantly delays re-epithelialization", "setting": "skin", "value": "not less than 15 mmol/L"}
    ]}
  ]
}
